The target in the assay is Head(wt) (NTS-DBL1α1-CIDR1γ of PfEMP1-VarO) (Plasmodium falciparum, UniProt B7T1P0). Kind of assay: surface plasmon resonance (Biacore […]), immobilised trisaccharide-BSA. It is filed as binding. As to conditions: labelled compound: multivalent BSA conjugate, 6 atom spacer, average 21 sugar residues per BSA; PBS, 25 °C; protein 10 nM-1 µM. For orientation: SPR reads the build-up and loss of mass on a sensor chip optically.

This is an account of results in PMC3395597, “Structural Basis for the ABO Blood-Group Dependence of Plasmodium falciparum Rosetting” (PLoS Pathogens, 2012).

Turning to `C[C@@H]1O[C@@H](O[C@H]2C(O)O[C@H](CO)[C@H](O)[C@@H]2O[C@H]2O[C@H](CO)[C@H](O)[C@H](O)[C@H]2O)[C@@H](O)[C@H](O)[C@@H]1O` (stereo partly shown) [blood group B trisaccharide], the “surface plasmon resonance (Biacore 2000), immobilised trisaccharide-BSA” value is “Direct binding of the recombinant Head(wt)domain to the blood group A and B trisaccharides”.
